Test results taken from patent US20080182859A1 (Curis, Inc., priority 2006, published 2008).

Legend:
C57BL/6 male mice [1] = assay: C57BL/6 hair growth after topical dosing; type: in vivo, mouse; conditions: shaved lower back, dosed topically once, visually graded for melanogenesis and hair regrowth
Experimental: (§1) A mouse model of male pattern baldness is used to investigate the effectiveness of the present compounds for growing hair. Agonists for the sonic hedgehog pathway that act by binding and activating Smoothened were tested in a formulation of 50:30:20 PG:EtOH:water or 5:95 DMSO:acetone vehicle. C57BL/6 male mice (48-52 days old on arrival) from Charles River Labs were used on the study. The mice were housed and cared for according to established procedures. Food and water were ad libitum. On Day 0, the mice were shaved on their lower back, an area of ˜1.5 inches x ˜2 inches with Wahl clippers using a surgical blade. On day −3, the mice were anesthetized with isoflurane, their back was rinsed with a pad of 70% ethanol, a placebo pellet or a DHT pellet (2.5 mg 21 day pellet) were implanted subcutaneously between the shoulder blades with a 10 gauge trochar. DHT pellet transplantation results in maintenance of existing hair follicles in the resting (telogen) phase. The hole was stapled with a sterile autoclip and the mice were returned to their cage after awaking. The mice were dosed topically once and visually graded daily, except weekends, for melanogenesis and hair regrowth of fur in the dosed area (Table 4).

C57BL/6 male mice [2] = assay: DHT-induced alopecia (mouse model of male pattern baldness); type: in vivo; conditions: C57BL/6 male mice with subcutaneous DHT pellet (2.5 mg 21 day), dosed topically once, visually graded for hair regrowth
Experimental: as §1
In the absence of treatment with the present compounds, the follicles remain in telogen rather than following the normal time course of the mouse hair cycle.

| Structure (SMILES) | C57BL/6 Hair Growth (C57BL/6 male mice [1]) | Androgenetic Alopecia (C57BL/6 male mice [2]) |
| --- | --- | --- |
| CNC1CCC(N(Cc2cc(-c3ccncc3)ccc2OC)C(=O)c2sc3ccccc3c2Cl)CC1 (stereo not shown) | yes | yes |
| CN[C@H]1CC[C@H](N(Cc2cc(-c3ccc(S(C)(=O)=O)cc3)ccc2OC)C(=O)c2sc3ccccc3c2Cl)CC1 | yes | yes |
| CN[C@H]1CC[C@H](N(Cc2cc(-c3ccnc(C(=O)OC)c3)ccc2OC)C(=O)c2sc3c(F)ccc(F)c3c2Cl)CC1 [drawing 714] | yes | yes |
| CN[C@H]1CC[C@H](N(Cc2cc(-c3ccnc(C)c3)ccc2OC)C(=O)c2sc3ccccc3c2Cl)CC1 | yes | yes |
| CN[C@H]1CC[C@H](N(Cc2cc(-c3cc(C)nc(C)c3)ccc2OC)C(=O)c2sc3ccccc3c2Cl)CC1 | yes | yes |
